Source: patent US20250170127A1, “RE-SENSITIZING MULTIDRUG-RESISTANT (MDR) GRAM-NEGATIVE BACTERIA TO COLISTIN USING IONOPHORES” (The Regents of the University of Colorado, a body corporate, priority 2022, published 2025)

What was measured:
E. coli AR-0493 [1] = experiment: MIC, CLSI broth microdilution, substance alone; assay type: cell-based
Description: A MDR E. coli strain AR-0493 (a.k.a., ATCC BAA-3170) was obtained from the CDC and FDA Antibiotic Resistance Bank and used for the initial screen. […] Considering the difficulties on the discovery of novel antimicrobial reagents against Gram-negative bacteria, we chose to screen the fragment-based library of 3,200 compounds from TimTec (Tampa, FL). […] The screen used a modified broth microdilution assay.
These 10 compounds were tested for their MICs and minimum re-sensitizing concentrations (MRCs) in the presence colistin at 2 μg/mL in E. coli AR-0493. […] To evaluate their toxicity in mammalian cells, the present inventors treated human epithelial adenocarcinoma HeLa cells with each compound at a wide range of concentrations. […]
(§1) General Methods. MDR strains E. coli AR-0493, AR-0346, and AR-0538, Salmonella Enteritidis AR-0496, Salmonella Typhimurium AR-0635, K. pneumoniae AR-0497, A. baumannii AR-0300 and AR-0310 were all obtained from the CDC & FDA Antibiotic Resistance Isolate Bank. E. coli K-12 was a gift from the Copley lab (Department of MCD Biology, University of Colorado Boulder). HeLa cells were purchased from the ATCC. All bacterial strains were grown on trypticase soy agar supplemented with 5% sheep blood (BAP). Bacteria were then cultured in Luria-Bertani (LB) medium at 35° C. until they achieve the log phase before screening or antimicrobial testing using CAMHB media. MIC, MRC, and checkerboard analyses and mammalian growth inhibition analyses in Hela cells were performed as described previously. More details are given in Supporting information.

E. coli AR-0349 = experiment: MICs of a panel of 9 antibiotics with and without compound 3; assay type: cell-based
P. aeruginosa AR-0239 = experiment: Colistin MIC in the absence or presence of RMA compound; assay type: cell-based; details: for fold reduction of colistin MIC: 1 μg/mL of compound; for Colistin MIC (+ compound): in the presence of 1 μg/mL of compound indicated
Description: (§2) To evaluate the mammalian toxicity of these analogs, Applicants tested them in cell viability assay using human cervical adenocarcinoma HeLa cells. Their respective half maximal growth inhibition concentration (GI50) was calculated using KaleidaGraph. The selectivity index (SI) for each compound was also calculated as the ratio of their GI50 and MRC. […] Therefore, Applicants selected two bisanilino analogs, 7l and 7m, that bear chlorines at the meta- and para-positions, respectively, of the phenyl groups for further characterization studies. […]. […] Their mammalian toxicities were also evaluated, and SIs calculated. […] Applicants we next explored the scope of analogs 71 and 7m their colistin-potentiating activity in 8 different MDR Gram negative bacteria with diverse genetic backgrounds and resistance mechanisms (Table 7). All strains were obtained from CDC and FDA Antibiotic Resistance Bank. For example, E. coli AR-0493 and K. pneumoniae AR-0497 carry the plasmid that contains the most prevalent mcr-1 gene. E. coli AR-0538, Salmonella Typhimurium AR-0539 and AR-0635 contain the mcr-2, 3, and 4 genes, respectively. These genes encode the phosphoethanolamine transferase, which was originated form the chromosome of A. baumannii, such as AR-0310. […]. A. baumannii AR-0310 appears more sensitive to these two compounds and the MICs of colistin was reduced to 0.25 μg/mL.

[2] = system: Salmonella Typhimurium AR-0539; experiment: as above; assay type: cell-based; details: for Colistin MIC (+ compound): in the presence of 1 μg/mL of compound indicated, S. Typhimurium AR-0539
Description: as §2

P. aeruginosa AR-0257 = experiment: as above; assay type: cell-based; details: for fold reduction of colistin MIC: 1 μg/mL of compound; for Colistin MIC (+ compound): in the presence of 1 μg/mL of compound indicated
Description: as §2

[3] = system: MDR Gram-negative bacteria; experiment: MICs across a panel of MDR Gram-negative bacteria (summary statements); assay type: cell-based; details: colistin alone
Text: (§3) To investigate the scope of the colistin-potentiation effect of compound 3, the present inventors screened a panel of MDR Gram-negative bacteria obtained from the CDC and FDA Antibiotic Resistance Bank. These include a variety of Enterobacteriaceae spp., such as E. coli AR-0346 and AR-0538, K. pneumoniae AR-0497, Salmonella Enteritidis AR-0496, and Salmonella Typhimurium AR-0635. These strains all express the mcr genes (e.g., mcr-1, mcr-2, and mcr-4) and are resistant to colistin with its MICs of 8-16 μg/mL (Table 2). […] The only exception is Salmonella Typhimurium AR-0635, which expresses mcr-4 gene. […]. […]. Furthermore, the present inventors also tested the activity of colistin in the presence or absence of 1 μg/mL compound 3 in a wild-type E. coli K-12. […] The MICs of compound 3 in all these strains were >64 μg/mL, the highest concentration tested.
as §2, §1

E. coli AR-0346 = experiment: Colistin MIC in the absence or presence of RMA compound; assay type: cell-based; details: colistin alone; E. coli AR-0346, mcr-1
Text: as §3, §1

[4] = system: Salmonella Enteritidis AR-0496; experiment: as above; assay type: cell-based; details: colistin alone; Salmonella Enteritidis AR-0496, mcr-1
Text: as §3, §1

E. coli K-12 = experiment: as above; assay type: cell-based; details: colistin alone; wild-type E. coli K-12
Text: as §3, §1

A. baumannii AR-0300 = experiment: as above; assay type: cell-based; details: colistin alone
Text: as §3, §1

P. aeruginosa AR-0768 = experiment: as above; assay type: cell-based; details: colistin alone
Text: as §3

E. coli AR-0493 [5] = experiment: as above; assay type: cell-based; details: for Colistin MIC: colistin alone, E. coli AR-0493, mcr-1; for Colistin MIC (+ compound): in the presence of 1 μg/mL of compound indicated, E. coli AR-0493
Text: as §3, §2, §1

[6] = system: Salmonella Typhimurium AR-0635; experiment: as above; assay type: cell-based; details: for Colistin MIC: colistin alone; for Colistin MIC (+ compound): in the presence of 1 μg/mL of compound indicated, S. Typhimurium AR-0635
Text: as §3, §2, §1

K. pneumoniae AR-0497 = experiment: as above; assay type: cell-based; details: for Colistin MIC: colistin alone, K. pneumoniae AR-0497, mcr-1; for Colistin MIC (+ compound): in the presence of 1 μg/mL of compound indicated, K. pneumoniae AR-0497
Text: as §3, §2, §1

E. coli AR-0538 = experiment: as above; assay type: cell-based; details: for Colistin MIC: colistin alone, E. coli AR-0538, mcr-2; for Colistin MIC (+ compound): in the presence of 1 μg/mL of compound indicated, E. coli AR-0538
Text: as §3, §2, §1

A. baumannii AR-0310 = experiment: as above; assay type: cell-based; details: for Colistin MIC: colistin alone; for Colistin MIC (+ compound): in the presence of 1 μg/mL of compound indicated
Text: as §3, §2, §1

mitochondria = details: previously reported; in vitro and in mice; cited from earlier work
HeLa cells = experiment: in vitro; assay type: cell-based, human
Description: These 10 compounds were tested for their MICs and minimum re-sensitizing concentrations (MRCs) in the presence colistin at 2 μg/mL in E. coli AR-0493. […] To evaluate their toxicity in mammalian cells, the present inventors treated human epithelial adenocarcinoma HeLa cells with each compound at a wide range of concentrations.
as §2, §1

E. coli AR-0493 [7] = experiment: Minimum re-sensitizing concentration (MRC) in the presence of colistin; assay type: cell-based; details: in the presence of 2 μg/mL colistin, E. coli AR-0493
Description: These 10 compounds were tested for their MICs and minimum re-sensitizing concentrations (MRCs) in the presence colistin at 2 μg/mL in E. coli AR-0493.
The present inventors further conducted MRC screens of selected compounds from groups 2-5 in AR-0493. Compound were tested against AR-0493 with compound X+2 μg/mL Colistin.
All compounds were tested for their respective minimum resensitizing concentrations (MRCs) for colistin against E. coli. AR0493, a MDR strain from CDC and FDA Antibiotic Resistance Bank. […] For the symmetrical bisanilino series, 7a-p, electron-donating alkyl and alkoxy groups (entries 7a-g, Table 5) at various positions of the phenyl rings were investigated. […] Three asymmetric bisanilino analogs (7q-s, Table 5) were synthesized based on the SARs of the monoanilino analogs 8a-p (vide infra).
as §1

Colistin [reference compound]
MIC (E. coli AR-0493 [1]): 16 µg/mL | INT (S-R interpretation) (E. coli AR-0349; CLSI 2021, M100, Ed 31): R | MIC (E. coli AR-0349; antibiotic alone, multidrug-resistant E. coli): 16 µg/mL | fold of potentiation (E. coli AR-0349; by 1 μg/mL of compound 3): 16 fold | MIC (+3) (E. coli AR-0349; in the presence of 1 μg/mL of compound 3): 1 µg/mL | Colistin MIC (P. aeruginosa AR-0239; colistin alone): 4 µg/mL | Colistin MIC ([2]; colistin alone, S. Typhimurium AR-0539, mcr-3): 8 µg/mL | Colistin MIC (P. aeruginosa AR-0257; colistin alone): 8 µg/mL | Colistin MIC ([3]; 8 MDR Gram negative strains of Table 7): 4 to 32 µg/mL | Colistin MIC ([3]; mcr-expressing Enterobacteriaceae strains of Table 2): 8 to 16 µg/mL | Colistin MIC (E. coli AR-0346): 8 µg/mL | Colistin MIC [4]: 16 µg/mL | Colistin MIC (E. coli K-12): 0.25 µg/mL | Colistin MIC (A. baumannii AR-0300): 8 µg/mL | Colistin MIC (P. aeruginosa AR-0768): 16 µg/mL | Colistin MIC (E. coli AR-0493 [5]; Table 2): 16 µg/mL | Colistin MIC (E. coli AR-0493 [5]; Table 7): 8 µg/mL | Colistin MIC ([6]; S. Typhimurium AR-0635, mcr-4, Table 7): 32 µg/mL | Colistin MIC ([6]; Salmonella Typhimurium AR-0635, mcr-4, Table 2): 16 µg/mL | Colistin MIC (K. pneumoniae AR-0497; Table 2): 8 µg/mL | Colistin MIC (K. pneumoniae AR-0497; Table 7): 8 µg/mL | Colistin MIC (E. coli AR-0538; Table 2): 8 µg/mL | Colistin MIC (E. coli AR-0538; Table 7): 8 µg/mL | Colistin MIC (A. baumannii AR-0310; Table 2): 16 µg/mL | Colistin MIC (A. baumannii AR-0310; Table 7): 32 µg/mL

FC(F)(F)Oc1ccc(Nc2nc3nonc3nc2Nc2ccc(OC(F)(F)F)cc2)cc1 [Compound 7p]
mitochondrial uncoupler activity (mitochondria): poor uncoupler | MIC (E. coli AR-0493 [1]): >64 µg/mL | GI50 (HeLa cells): 5.7 µg/mL | MRC (minimum re-sensitizing concentration) (E. coli AR-0493 [7]; listed as 57p): 0.25 µg/mL

Clc1cccc(Nc2nc3nonc3nc2Nc2cccc(Cl)c2)c1 [Compound 7l]
MIC (E. coli AR-0493 [1]): >64 µg/mL | fold reduction of colistin MIC (P. aeruginosa AR-0239): 4 folds | Colistin MIC (+ compound) (P. aeruginosa AR-0239): 1 µg/mL | Colistin MIC (+ compound) [2]: 1 µg/mL | fold reduction of colistin MIC (P. aeruginosa AR-0257): 4 folds | Colistin MIC (+ compound) (P. aeruginosa AR-0257): 2 µg/mL | GI50 (HeLa cells): 1.1 µg/mL | MRC (minimum re-sensitizing concentration) (E. coli AR-0493 [7]): 0.25 µg/mL | Colistin MIC (+ compound) (E. coli AR-0493 [5]): 1 µg/mL | Colistin MIC (+ compound) [6]: 1 µg/mL | Colistin MIC (+ compound) (K. pneumoniae AR-0497): 1 µg/mL | Colistin MIC (+ compound) (E. coli AR-0538): 1 µg/mL | Colistin MIC (+ compound) (A. baumannii AR-0310): 0.25 µg/mL

Clc1ccc(Nc2nc3nonc3nc2Nc2ccc(Cl)cc2)cc1 [Compound 7m]
MIC (E. coli AR-0493 [1]): >64 µg/mL | fold reduction of colistin MIC (P. aeruginosa AR-0239): 4 folds | Colistin MIC (+ compound) (P. aeruginosa AR-0239): 1 µg/mL | Colistin MIC (+ compound) [2]: 2 µg/mL | fold reduction of colistin MIC (P. aeruginosa AR-0257): 4 folds | Colistin MIC (+ compound) (P. aeruginosa AR-0257): 2 µg/mL | GI50 (HeLa cells): 2.8 µg/mL | MRC (minimum re-sensitizing concentration) (E. coli AR-0493 [7]): 0.5 µg/mL | Colistin MIC (+ compound) (E. coli AR-0493 [5]): 1 µg/mL | Colistin MIC (+ compound) [6]: 1 µg/mL | Colistin MIC (+ compound) (K. pneumoniae AR-0497): 1 µg/mL | Colistin MIC (+ compound) (E. coli AR-0538): 2 µg/mL | Colistin MIC (+ compound) (A. baumannii AR-0310): 0.25 µg/mL

Oc1nc2nonc2nc1Nc1ccc(OC(F)(F)F)cc1 [Compound 8p]
mitochondrial uncoupler activity (mitochondria): one of the most potent uncouplers
